Results reported in patent US11470844B2, “Vespidae wasp repellent” (KINP CO., LTD, priority 2015, dated 2022).

System: Vespa analis insularis (Fabricius) worker
Assay: Black ball nest disturbance, Experiment 1
Format: in vivo
Description: The experiment was conducted with utilizing a nest of Vespa analis insularis (Fabricius) built under an awning of a private house in Iida-cho Takamatsu City on Sep. 9, 2015.
A black ball was hung on the tip of a fishing rod having a length of 11 m, and distilled water was sprayed on the entire surface of the black ball. While the surface of the nest was tapped with the tip of the fishing rod once every about 10 seconds, the worker's action against the black ball was taken and recorded with a video camera for 5 minutes. When the nest was hit, the black ball was in close proximity to the nest as the black ball was about to touch the nest, and when the nest was not hit, the black ball was kept still in the air about 50 cm away from the nest surface. The thus recorded video footage was replayed, and the number of worker which flew to and alighted on the hemisphere surface of the black ball for attack was counted. Similar experiments were conducted with respect to the black ball prepared by spraying benzyl alcohol on the entire surface of a new black ball as “Test liquid example 1” and the black ball prepared by spraying benzyl alcohol on the entire surface of the control example black ball on which alarm pheromone was adsorbed by the worker's attack as “Test liquid example 2”. In addition, a picture of the video footage 234 seconds after the start of the nest disturbance is shown as FIG. 3. FIG. 3A is an image of the control example that distilled water was used, FIG. 3B is an image of the Test liquid example 1, and FIG. 3C is an image of the Test liquid example 2.

OCc1ccccc1 [Benzyl alcohol, benzyl alcohol]
number of worker alighted on hemisphere surface of black ball for attack (30 s, benzyl alcohol on ball with adsorbed alarm pheromone): 0
number of worker alighted on hemisphere surface of black ball for attack (30 s, benzyl alcohol on new black ball): 0
number of worker alighted on hemisphere surface of black ball for attack (60 s, benzyl alcohol on ball with adsorbed alarm pheromone): 1
number of worker alighted on hemisphere surface of black ball for attack (60 s, benzyl alcohol on new black ball): 0
number of worker alighted on hemisphere surface of black ball for attack (90 s, benzyl alcohol on ball with adsorbed alarm pheromone): 0
number of worker alighted on hemisphere surface of black ball for attack (90 s, benzyl alcohol on new black ball): 2
number of worker alighted on hemisphere surface of black ball for attack (120 s, benzyl alcohol on ball with adsorbed alarm pheromone): 0
number of worker alighted on hemisphere surface of black ball for attack (120 s, benzyl alcohol on new black ball): 1
number of worker alighted on hemisphere surface of black ball for attack (150 s, benzyl alcohol on ball with adsorbed alarm pheromone): 0
number of worker alighted on hemisphere surface of black ball for attack (150 s, benzyl alcohol on new black ball): 0
number of worker alighted on hemisphere surface of black ball for attack (180 s, benzyl alcohol on ball with adsorbed alarm pheromone): 0
number of worker alighted on hemisphere surface of black ball for attack (180 s, benzyl alcohol on new black ball): 0
number of worker alighted on hemisphere surface of black ball for attack (210 s, benzyl alcohol on ball with adsorbed alarm pheromone): 0
number of worker alighted on hemisphere surface of black ball for attack (210 s, benzyl alcohol on new black ball): 0
number of worker alighted on hemisphere surface of black ball for attack (240 s, benzyl alcohol on ball with adsorbed alarm pheromone): 0
number of worker alighted on hemisphere surface of black ball for attack (240 s, benzyl alcohol on new black ball): 0
number of worker alighted on hemisphere surface of black ball for attack (270 s, benzyl alcohol on ball with adsorbed alarm pheromone): 0
number of worker alighted on hemisphere surface of black ball for attack (270 s, benzyl alcohol on new black ball): 0
number of worker alighted on hemisphere surface of black ball for attack (300 s, benzyl alcohol on ball with adsorbed alarm pheromone): 0
number of worker alighted on hemisphere surface of black ball for attack (300 s, benzyl alcohol on new black ball): 0
repellent effect (in vivo): strong repellent effect
